Experimental data reported in ChEMBL document CHEMBL1811861 (Bioorg Med Chem, 2011).

Legend:
[1] = tested on: Influenza A virus; assay: microbe, parasite or virus in culture; conditions: H1N1, MDCK
[2] = tested on: Influenza B virus; assay: microbe, parasite or virus in culture; conditions: MDCK
[3] = tested on: HEL; conditions: human, 72 h
[4] = tested on: Human alphaherpesvirus 1; assay: microbe, parasite or virus in culture; conditions: Human alphaherpesvirus 1, KOS, HEL
[5] = tested on: Human alphaherpesvirus 2; assay: microbe, parasite or virus in culture; conditions: Human alphaherpesvirus 2, strain G, HEL
[6] = tested on: Human alphaherpesvirus 3; assay: microbe, parasite or virus in culture; conditions: Human alphaherpesvirus 3, strain Oka vaccine, HEL
[7] = tested on: Human alphaherpesvirus 3; assay: microbe, parasite or virus in culture; conditions: Human alphaherpesvirus 3, 07/1, HEL
[8] = tested on: Human betaherpesvirus 5; assay: microbe, parasite or virus in culture; conditions: Human betaherpesvirus 5, AD169, HEL
[9] = tested on: Human betaherpesvirus 5; assay: microbe, parasite or virus in culture; conditions: Human betaherpesvirus 5, Davis, HEL
[10] = tested on: Vaccinia virus; assay: microbe, parasite or virus in culture; conditions: Orthopoxvirus vaccinia, HEL
[11] = tested on: Human betaherpesvirus 5; assay: microbe, parasite or virus in culture; conditions: Human betaherpesvirus 5, AD169, HFF
[12] = tested on: Human alphaherpesvirus 1; assay: microbe, parasite or virus in culture; conditions: Human alphaherpesvirus 1, KOS, HEL; remark: listed apart in the source
[13] = tested on: Felid alphaherpesvirus 1; assay: microbe, parasite or virus in culture; conditions: Felid alphaherpesvirus 1, CRFK
[14] = cat, crfk, 72 h
[15] = tested on: HeLa; conditions: human, 72 h
[16] = tested on: CCRF-CEM; conditions: human, 72 h
[17] = tested on: Human immunodeficiency virus 1; assay: microbe, parasite or virus in culture; conditions: Human immunodeficiency virus 1, 3B, CCRF-CEM, 96 h
[18] = tested on: Human immunodeficiency virus 2; assay: microbe, parasite or virus in culture; conditions: Human immunodeficiency virus 2, ISOLATE ROD, CCRF-CEM, 96 h
[19] = tested on: Vesicular stomatitis virus; assay: microbe, parasite or virus in culture; conditions: HEL
[20] = tested on: Vesicular stomatitis virus; assay: microbe, parasite or virus in culture; conditions: HeLa
[21] = tested on: Respiratory syncytial virus; assay: microbe, parasite or virus in culture; conditions: human respiratory syncytial virus, HeLa
[22] = tested on: Coxsackievirus B4; assay: microbe, parasite or virus in culture; conditions: Enterovirus B, HeLa
[23] = tested on: Coxsackievirus B4; assay: microbe, parasite or virus in culture; conditions: Enterovirus B, Vero
[24] = tested on: Human respirovirus 3; assay: microbe, parasite or virus in culture; conditions: Human respirovirus 3, Vero
[25] = tested on: Mammalian orthoreovirus 1; assay: microbe, parasite or virus in culture; conditions: Mammalian orthoreovirus 1, Vero
[26] = tested on: Sindbis virus; assay: microbe, parasite or virus in culture; conditions: Vero
[27] = tested on: Punta Toro virus; assay: microbe, parasite or virus in culture; conditions: Vero
[28] = tested on: Feline coronavirus; assay: microbe, parasite or virus in culture; conditions: Alphacoronavirus 1, CRFK
[29] = tested on: Influenza A virus; assay: microbe, parasite or virus in culture; conditions: H3N2, MDCK
[30] = tested on: Human immunodeficiency virus 1; assay: microbe, parasite or virus in culture; conditions: Human immunodeficiency virus 1, LAI, MT2
[31] = in vitro; conditions: human, HeLa cells

Compound CCOC(=O)C1=C[C@@H](OC(CC)CC)[C@H](NC(C)=O)[C@@H](N)C1 [OSELTAMIVIR] has an EC50 [1] of 12 µM and an EC50 [2] of 23.5 µM.

Work on Nc1ccn(C[C@@H](CO)OCP(=O)(O)O)c(=O)n1 [CIDOFOVIR] yielded a CC50 [3] of 234 µM, an EC50 [4] of 1.6 µM and an EC50 [5] of 1.43 µM. The EC50 [6] was 0.29 µM, the EC50 [7] was 0.1 µM and the EC50 [8] was 0.92 µM. The EC50 [9] was 0.94 µM, the EC50 [10] was 7 µM and the EC50 [11] was 1.2 µM.

Nc1ncnc2c1ncn2CCOCP(=O)(O)OCCOCCCCCCCCC(O)CO (centres undefined) gave an EC50 [6] of 61.4 µM and an EC50 [7] of no less than 72.7 µM.

In the case of Nc1ccn(C[C@@H](CO)OCP(=O)(O)OCCOCCOCCOCCOCCOCCO)c(=O)n1, the EC50 [4] is reported as 16.5 µM, the EC50 [12] is reported as 12.9 µM and the EC50 [5] is reported as 7.4 µM. It also gave an EC50 [6] of 1.91 µM, an EC50 [7] of 0.6 µM and an EC50 [8] of 0.8 µM. The EC50 [9] was 0.7 µM, the EC50 [13] was 14.5 µM and the EC50 [10] was 107 µM.

In the case of Nc1nc(O)c2ncn(COC(CO)CO)c2n1 [GANCICLOVIR], the CC50 [3] is reported as 435 µM, the CC50 [14] is reported as greater than 394 µM and the EC50 [5] is reported as 0.027 µM. The EC50 [13] was 8.1 µM and the EC50 [10] was greater than 250 µM.

With Nc1ncnc2c1ncn2CCOCP(=O)(OCCOCCCCCCCCC(O)CO)OCCOCCCCCCCCC(O)CO (centres undefined) the EC50 [8] was greater than 28.3 µM.

Work on Nc1ncnc2c1ncn2CCOCP(=O)(O)OCCOCCOCCOCCOCCOCCO yielded an EC50 [7] of 40.9 µM.

O=c1[nH]c(=O)n([C@H]2C[C@H](O)[C@@H](CO)O2)cc1/C=C/Br [BRIVUDINE] showed a CC50 [3] of 470 µM, an EC50 [12] of 274 µM and an EC50 [5] of 45.7 µM. It also gave an EC50 [6] of 0.013 µM and an EC50 [7] of no less than 105 µM.

With Nc1nc2c(ncn2COCCO)c(=O)[nH]1 [ACYCLOVIR] the CC50 [3] was no less than 1420 µM and the EC50 [7] was 69.3 µM.

Compound Nc1ncnc2c1ncn2CCOCP(=O)(OCCOCCCCCCCCCCO)OCCOCCCCCCCCCCO has a CC50 [3] of 62.5 µM, a CC50 [14] greater than 148 µM and a CC50 [15] of 148 µM. The CC50 [16] was 13.5 µM, the EC50 [4] was greater than 29.7 µM and the EC50 [12] was greater than 29.7 µM. It also gave an EC50 [5] greater than 29.7 µM, an EC50 [6] greater than 29.7 µM and an EC50 [7] greater than 29.7 µM. It also gave an EC50 [8] greater than 29.7 µM, an EC50 [9] greater than 29.7 µM and an EC50 [13] greater than 29.7 µM. The EC50 [10] was greater than 29.7 µM, the EC50 [17] was greater than 29.7 µM and the EC50 [18] was greater than 29.7 µM. The EC50 [19] was greater than 29.7 µM, the EC50 [20] was greater than 29.7 µM and the EC50 [21] was greater than 29.7 µM. It also gave an EC50 [22] greater than 29.7 µM, an EC50 [23] greater than 29.7 µM and an EC50 [24] greater than 29.7 µM. For the same compound, the EC50 [25] was greater than 29.7 µM, the EC50 [26] was greater than 29.7 µM and the EC50 [27] was greater than 29.7 µM. For the same compound, the EC50 [28] was greater than 29.7 µM, the EC50 [1] was greater than 5.9 µM and the EC50 [29] was greater than 5.9 µM. For the same compound, the EC50 [2] was greater than 5.9 µM.

CCOCCOCCOCCOCCOCCOCCOP(=O)(O)CO[C@H](CO)Cn1ccc(N)nc1=O showed an EC50 [12] of 3.5 µM, an EC50 [5] of 1.4 µM and an EC50 [8] of 0.95 µM. It also gave an EC50 [13] of 2.8 µM and an EC50 [10] of 15.7 µM.

In the case of Nc1ncnc2c1ncn2CCOCP(=O)(OCCCCCCCCCCO)OCCCCCCCCCCO, the EC50 [6] is reported as greater than 34 µM, the EC50 [7] is reported as greater than 34 µM and the EC50 [8] is reported as greater than 34 µM. The EC50 [9] was greater than 34 µM, the EC50 [21] was 99 µM and the EC50 [23] was greater than 34 µM. For the same compound, the EC50 [24] was greater than 34 µM, the EC50 [25] was greater than 34 µM and the EC50 [26] was greater than 34 µM. It also gave an EC50 [27] greater than 34 µM.

Compound CCCCCCCCCCCCCCOCCCOP(=O)(O)CO[C@H](CO)Cn1ccc(N)nc1=O has an EC50 [11] of 0.002 µM.

Nc1ncnc2c1ncn2CCOCP(=O)(O)OCCCCCCCCC(O)CO (centres undefined) showed a CC50 [14] of 9.4 µM, an EC50 [13] greater than 9 µM and an EC50 [28] greater than 9 µM.

For CCCCCCCCCCCCCCCCOCCCOP(=O)(O)COCCn1cnc2c(N)ncnc21, the EC50 [30] was 0.015 nM.

With Nc1ncnc2c1ncn2CCOCP(=O)(O)O [ADEFOVIR] the CC50 [15] was greater than 250 µM, the CC50 [16] was 164 µM and the EC50 [4] was 42.5 µM. The EC50 [12] was 41.4 µM, the EC50 [5] was 24.9 µM and the EC50 [6] was 6.7 µM. The EC50 [7] was 5 µM, the EC50 [8] was 118 µM and the EC50 [9] was 115 µM. It also gave an EC50 [17] of 10.4 µM, an EC50 [18] of 8.6 µM and an EC50 [30] of 1100 nM.

In the case of Cc1oc(=O)oc1COP(=O)(O)COCCn1cnc2c(N)ncnc21, the CC50 [3] is reported as 117 µM, the CC50 [16] is reported as 88 µM and the EC50 [4] is reported as 51.9 µM. It also gave an EC50 [12] of 51.9 µM, an EC50 [5] of 98.6 µM and an EC50 [6] of 1.92 µM. It also gave an EC50 [7] of 7.6 µM, an EC50 [17] of 10.6 µM and an EC50 [18] of 9.3 µM.

Work on Nc1ncnc2c1ncn2CCOCP(=O)(OCCCCCCCCC(O)CO)OCCCCCCCCC(O)CO (centres undefined) yielded an EC50 [6] of 99 µM, an EC50 [7] of 60.7 µM and an EC50 [29] greater than 324 µM.

With CCOCCOCCOCCOCCOCCOCCOP(=O)(O)COCCn1cnc2c(N)ncnc21 the CC50 [3] was 146 µM, the EC50 [6] was 74.3 µM and the EC50 [7] was 69 µM.

Work on NC(=O)c1ncn([C@@H]2O[C@H](CO)[C@@H](O)[C@H]2O)n1 [RIBAVIRIN] yielded a CC50 at 72 h [31] greater than 250 µM, an EC50 [21] of 3 µM and an EC50 [23] greater than 250 µM. For the same compound, the EC50 [25] was no less than 174 µM, the EC50 [26] was greater than 250 µM and the EC50 [1] was 9.8 µM.

Nc1ncnc2c1ncn2CCOCP(=O)(O)OCCCCCCCCCCO showed an EC50 [6] of 114 µM and an EC50 [7] of 64.3 µM.

CCCCCCCCCCCCCCCCOCCCOP(=O)(O)CO[C@H](CO)Cn1ccc(N)nc1=O [BRINCIDOFOVIR] gave an EC50 [11] of 0.0009 µM.

Compound Nc1ncnc2c1ncn2CCOCP(=O)(O)OCCOCCCCCCCCCCO has an EC50 [12] of 122 µM, an EC50 [5] of 122 µM and an EC50 [6] of 26 µM. For the same compound, the EC50 [7] was 18.4 µM, the EC50 [17] was 106 µM and the EC50 [18] was 95 µM. The EC50 [1] was greater than 42 µM, the EC50 [29] was greater than 42 µM and the EC50 [2] was greater than 42 µM.
